The values below are quoted from earlier work in patent US4939134A, “26-aminocholesterol and derivatives and analogs thereof in the regulation of cholesterol accumulation in body tissue” (New York University, priority 1988, dated 1990).

Structures are written as SMILES.

In one data set the test system is HMG CoA reductase. As to conditions: cited from earlier work.
The test system of data set [1] is hepatic cholesterol synthesis. The settings on record: cited from earlier work.
A further data set has as its system LDL receptors. As to conditions: fibroblasts and other non-hepatic cells, cell culture studies; cited from earlier work.

`CC[C@H](C)C(=O)O[C@H]1C[C@@H](C)C=C2C=C[C@H](C)[C@H](CC[C@@H]3C[C@@H](O)CC(=O)O3)[C@H]21` [mevinolin]: the “amount of HMG CoA reductase” value with HMG CoA reductase is recorded as “increases the amount of HMG CoA reductase”. In data set [1], the hepatic cholesterol synthesis entry is on record as “inhibit hepatic cholesterol synthesis”. For the same compound, the LDL receptors result with LDL receptors is on record as “upregulates LDL receptors”.
